Data: patent US6172085A (priority 1996, dated 2001)
Structures can show the parent of a compound that is named as a salt.

test system: sodium channel; format: binding, Wistar rats; conditions: rat cerebral cortex membrane, 5 nM [^3 H]batracotoxinin A20-α-benzoate, 1 μM tetrodotoxin, 100 μg/mL scorpion toxin, 37° C., 1 hour

`Cc1c(C)c2c(c(C)c1N)CC(C)(CN1CCC(CCc3ccccc3)CC1)O2` (centres unmarked) [Example 1, 2,3-Dihydro-2,4,6,7-tetramethyl-2-[[4-(2-phenylethyl)-1-piperidinyl]methyl]-5-benzofuranamine] and `Cc1c(C)c2c(c(C)c1N)CC(C)(CN1CCC(CCCc3ccccc3)CC1)O2` (centres unmarked) [Example 2, 2,3-Dihydro-2,4,6,7-tetramethyl-2-[[4-(3-phenylpropyl)-1-piperidinyl]methyl]-5-benzofuranamine] are within 1.5-fold of each other in IC50: 0.22 µM for the first, 0.28 µM for the second.

Compared with `Cc1c(C)c2c(c(C)c1N)CC(C)(CN1CCC(CCCCc3ccccc3)CC1)O2` (centres unmarked) [Example 3, 2,3-Dihydro-2,4,6,7-tetramethyl-2-[[4-(4-phenylbutyl)-1-piperidinyl]methyl]-5-benzofuranamine], `Cc1c(C)c2c(c(C)c1N)CC(C)(CN1CCC(Cc3ccccc3)CC1)O2` (centres unmarked) [Example 5, 2-[(4-Benzyl-1-piperidinyl)methyl]-2,3-dihydro-2,4,6,7-tetramethyl-5-benzofuranamine] is 2-fold higher in IC50: 0.26 µM for the first, 0.52 µM for the second. The first is the more potent here.

`Cc1c(C)c2c(c(C)c1N)CC(C)(CN1CCN(Cc3ccc4c(c3)OCO4)CC1)O2` (centres unmarked) [Example 4, 2,3-Dihydro-2,4,6,7-tetramethyl-2-[[4-[(3,4-methylenedioxyphenyl)methyl]-1-piperazinyl]methyl]-5-benzofuranamine trihydrochloride] and `Cc1c(C)c2c(c(C)c1N)CC(C)(CN1CCN(Cc3ccc(Cl)cc3)CC1)O2` (centres unmarked) [Example 33, 2-[[4-(4-Chlorobenzyl)-1-piperazinyl]methyl]-2,3-dihydro-2,4,6,7-tetramethyl-5-benzofuranamine trihydrochloride] are within 1.5-fold of each other in IC50: 0.28 µM for the first, 0.31 µM for the second.

First: Cc1c(C)c2c(c(C)c1N)CC(C)(CN1CCN(Cc3ccccc3)CC1)O2 (centres unmarked) [Example 6, 2-[(4-Benzyl-1-piperazinyl)methyl]-2,3-dihydro-2,4,6,7-tetramethyl-5-benzofuranamine trihydrochloride]
Second: Cc1c(C)c2c(c(C)c1N)CC(C)(CN1CCN(CCc3ccccc3)CC1)O2 (centres unmarked) [Example 27, 2,3-Dihydro-2,4,6,7-tetramethyl-2-[[4-(2-phenylethyl)-1-piperazinyl]methyl]-5-benzofuranamine]
The IC50 of the first is 4-fold higher: 0.79 µM for the first, 0.2 µM for the second. The second is the more potent here.

`Cc1c(C)c2c(c(C)c1N)CC(C)(CN1CCC(OC(c3ccccc3)c3ccccc3)CC1)O2` (centres unmarked) [Example 17, 2-[[4-(Diphenylmethoxy)-1-piperidinyl]methyl]-2,3-dihydro-2,4,6,7-tetramethyl-5-benzofuranamine oxalate] and `Cc1c(C)c2c(c(C)c1N)CC(C)(CN1CCC(COC(c3ccccc3)c3ccccc3)CC1)O2` (centres unmarked) [Example 24, 2-[[4-[(Diphenylmethoxy)methyl]-1-piperidinyl]methyl]-2,3-dihydro-2,4,6,7-tetramethyl-5-benzofuranamine oxalate] are within 1.5-fold of each other in IC50: 0.32 µM for the first, 0.41 µM for the second.

First: Cc1c(C)c2c(c(C)c1N)CC(C)(CN1CCC(CCOC(c3ccccc3)c3ccccc3)CC1)O2 (centres unmarked) [Example 25, 2-[[4-[2-(Diphenylmethoxy)ethyl]-1-piperidinyl]methyl]-2,3-dihydro-2,4,6,7-tetramethyl-5-benzofuranamine oxalate]
Second: Cc1c(C)c2c(c(C)c1N)CC(C)(CN1CCC(CCCOC(c3ccccc3)c3ccccc3)CC1)O2 (centres unmarked) [Example 26, 2-[[4-[3-(Diphenylmethoxy)propyl]-1-piperidinyl]methyl]-2,3-dihydro-2,4,6,7-tetramethyl-5-benzofuranamine oxalate]
The IC50 of the first is 1.5-fold higher: 0.34 µM for the first, 0.22 µM for the second. The second is the more potent here.

`Cc1c(C)c2c(c(C)c1N)CC(C)(CN1CCC(OC(c3ccc(F)cc3)c3ccc(F)cc3)CC1)O2` (centres unmarked) [Example 28, 2-[[4-[Bis(4-fluorophenyl)methoxy]-1-piperidinyl]methyl]-2,3-dihydro-2,4,6,7-tetramethyl-5-benzofuranamine oxalate] and `Cc1c(C)c2c(c(C)c1N)CC(C)(CN1CCC(NC(c3ccccc3)c3ccccc3)CC1)O2` (centres unmarked) [Example 40, 1-[(5-Amino-2,3-dihydro-2,4,6,7-tetramethylbenzofuran-2-yl)methyl]-N-(diphenylmethyl)-4-piperidinamine trihydrochloride] are within 1.5-fold of each other in IC50: 0.22 µM for the first, 0.16 µM for the second.

Compared with `COc1ccc(CN2CCN(CC3(C)Cc4c(C)c(N)c(C)c(C)c4O3)CC2)cc1` (centres unmarked) [Example 29, 2,3-Dihydro-2-[[4-(4-methoxybenzyl)-1-piperazinyl]methyl]-2,4,6,7-tetramethyl-5-benzofuranamine trihydrochloride], `Cc1ccc(CN2CCN(CC3(C)Cc4c(C)c(N)c(C)c(C)c4O3)CC2)cc1` (centres unmarked) [Example 34, 2,3-Dihydro-2,4,6,7-tetramethyl-2-[[4-(4-methylbenzyl)-1-piperazinyl]methyl]-5-benzofuranamine trihydrochloride] is 2-fold higher in IC50: 0.21 µM for the first, 0.42 µM for the second. The first is the more potent here.

`COc1cccc(CN2CCN(CC3(C)Cc4c(C)c(N)c(C)c(C)c4O3)CC2)c1` (centres unmarked) [Example 30, 2,3-Dihydro-2-[[4-(3-methoxybenzyl)-1-piperazinyl]methyl]-2,4,6,7-tetramethyl-5-benzofuranamine trihydrochloride] and `COc1ccccc1CN1CCN(CC2(C)Cc3c(C)c(N)c(C)c(C)c3O2)CC1` (centres unmarked) [Example 31, 2,3-Dihydro-2-[[4-(2-methoxybenzyl)-1-piperazinyl]methyl]-2,4,6,7-tetramethyl-5-benzofuranamine trihydrochloride] are within 1.5-fold of each other in IC50: 0.39 µM for the first, 0.49 µM for the second.

Compared with `COc1ccc(CN2CCN(CC3(C)Cc4c(C)c(N)c(C)c(C)c4O3)CC2)cc1OC` (centres unmarked) [Example 32, 2-[[4-(3,4-Dimethoxybenzyl)-1-piperazinyl]methyl]-2,3-dihydro-2,4,6,7-tetramethyl-5-benzofuranamine trihydrochloride], `Cc1c(C)c2c(c(C)c1N)CC(C)(CN1CCc3ccccc3CC1)O2` (centres unmarked) [Reference Example 10, 2,3-Dihydro-2,4,6,7-tetramethyl-2-[(2,3,4,5-tetrahydro-1H-3-benzazepin-3-yl)methyl]-5-benzofuranamine dihydrochloride] is 1.9-fold higher in IC50: 0.25 µM for the first, 0.47 µM for the second. The first is the more potent here.

`Cc1c(C)c2c(c(C)c1N)CC(C)(CN1CCC(CCNC(c3ccccc3)c3ccccc3)CC1)O2` (centres unmarked) [Example 41, 1[(5-Amino-2,3-dihydro-2,4,6,7-tetramethylbenzofuran-2-yl)methyl]-N-(diphenylmethyl)-4-piperidineethylamine trihydrochloride] and `Cc1c(C)c2c(c(C)c1N)CC(C)(CN1CCC(CCNCCC(c3ccccc3)c3ccccc3)CC1)O2` (centres unmarked) [Example 42, 1-[(5-Amino-2,3-dihydro-2,4,6,7-tetramethylbenzofuran-2-yl)methyl]-N-(3,3-diphenylpropyl)-4-piperidineethylamine trihydrochloride] are within 1.5-fold of each other in IC50: 0.14 µM for the first, 0.16 µM for the second.

`CCNc1c(C)c(C)c2c(c1C)CC(C)(CN1CCC(c3ccccc3)CC1)O2` (centres unmarked) [Reference Example 8, N-ethyl-2,3-dihydro-2,4,6,7-tetramethyl-2-[(4-phenyl-1-piperidinyl)methyl]-5-benzofuranamine] gave an IC50 of 0.64 µM.
